Results published in paper PMC4619332, “Targeting type-2 metabotropic glutamate receptors to protect vulnerable hippocampal neurons against ischemic damage” (Molecular Brain, 2015).

Target: T1, mGlu3 receptor (Homo sapiens, UniProt Q14832)
T1 construct: gene GRM3; recombinant receptor stably expressed in HEK293 cells
Test: FLIPR Ca2+ mobilization, antagonist mode at glutamate EC80
Type: cell-based
Source text: FLIPR Ca2+ mobilization, antagonist mode [NT]

T1 sequence (Q14832 23-879): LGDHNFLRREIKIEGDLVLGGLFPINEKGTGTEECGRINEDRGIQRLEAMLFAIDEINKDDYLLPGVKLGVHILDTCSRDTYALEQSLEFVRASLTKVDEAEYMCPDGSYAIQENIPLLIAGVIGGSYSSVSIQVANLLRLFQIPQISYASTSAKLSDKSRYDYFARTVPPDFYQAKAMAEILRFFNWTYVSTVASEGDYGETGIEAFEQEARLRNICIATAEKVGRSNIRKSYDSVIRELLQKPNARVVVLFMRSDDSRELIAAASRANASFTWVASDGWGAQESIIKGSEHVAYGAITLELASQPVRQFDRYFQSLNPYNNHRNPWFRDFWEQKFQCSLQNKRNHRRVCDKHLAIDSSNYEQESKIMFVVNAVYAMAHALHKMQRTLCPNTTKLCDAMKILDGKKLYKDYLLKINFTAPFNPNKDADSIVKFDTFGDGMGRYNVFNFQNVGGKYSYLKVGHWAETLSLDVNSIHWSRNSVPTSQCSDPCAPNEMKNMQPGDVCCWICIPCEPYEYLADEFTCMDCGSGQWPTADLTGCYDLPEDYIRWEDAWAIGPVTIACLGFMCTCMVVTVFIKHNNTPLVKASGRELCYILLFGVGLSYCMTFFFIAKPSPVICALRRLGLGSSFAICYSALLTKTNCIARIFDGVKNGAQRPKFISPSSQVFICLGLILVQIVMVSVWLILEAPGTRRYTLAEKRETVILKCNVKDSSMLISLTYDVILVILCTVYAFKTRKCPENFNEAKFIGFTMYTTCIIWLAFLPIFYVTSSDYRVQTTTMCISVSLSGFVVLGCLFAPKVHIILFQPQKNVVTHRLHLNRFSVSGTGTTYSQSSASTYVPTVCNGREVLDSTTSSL

IC50: 17.4 µM
Substance: ADX92639
